Experimental data from patent US20070117182A1, “Nucleic acids conferring transcriptional responsiveness on the RANKL gene promoter and uses thereof” (Wisconsin Alumni Research Foundation, priority 2005, published 2007).

Key:
[1] = test system: D5 fragment in COS7 cells; assay: pRL-D5/TK-luc reporter in COS7 cells with VDR expression vector; assay type: cell-based, mouse
Protocol: FIG. 6. Transcriptional activity of the D5 regions of the RANKL gene in the context of the TK promoter. Sequence surrounding the D5 region (1072 bp) was cloned into the pTK-luciferase vector and termed pTK-RL(D5). […] Cells were harvested after 24 hours and luciferase activity assessed. B) ST2 cells were transfected as in A above but without the VDR expression vector and evaluated as in A. C) COS-7 cells were transfected and evaluated as in A above. Luciferase was normalized using beta-gal activity. Data represent the mean of triplicate determinations (SEM). The pTK-luc control vector was unresponsive to any of the inducers (see FIG. 9). *, p<0.05 vs no treatment control.
(§1) The activity of an enhancer must be evaluated in the context of its local environment, preferentially in the context of both other enhancers and its native promoter. In the case of the RANKL gene, however, this is clearly not possible due to the numbers and the distant locations of the potential regulatory regions. […] To ensure that the viral TK promoter background was not contributing to our evaluation, the inventors cloned the mouse RANKL promoter (−100 to +65) into pGL3, inserted RL D5 and evaluated its activity in ST2 cells as well.

[2] = test system: D1-D4 regions of the RANKL gene; assay: pTK-RL(D1)-(D4) luciferase reporters in ST2 cells; assay type: cell-based, mouse
Protocol: FIG. 12. Transcriptional activities of the D1-D4 regions of the RANKL gene in the context of the TK promoter were analyzed and corresponding data is shown in FIG. 12. The D1-D4 regions of the RANKL gene were cloned into the pTK vector and termed PTK-RL(D1)-(D4). […] Cells were harvested after 24 hours and luciferase activity assessed. Luciferase was normalized using beta-gal activity. Data in FIG. 12 represent the mean of triplicate determinations (SEM).
as §1
Transcriptional activities of the D1-D4 regions of the RANKL gene in the context of the TK promoter were analyzed and corresponding data is shown in FIG. 12. […] Cells were harvested after 24 hours and luciferase activity assessed. […]

D5 fragment in MC-3T3-E1 = assay: pRL-D5/TK-luc reporter in MC-3T3-E1 cells; assay type: cell-based; conditions: osteoblast mouse cell line MC-3T3-E1, which does not produce RANKL
[3] = test system: human D5 region (TK-hRLD5); assay: TK-hRLD5 luciferase reporter in MG-63 cells; assay type: cell-based; conditions: 24 hours
Protocol: FIG. 14. […] Cells were treated with the indicated inducers for the periods identified and isolated RNA subjected to PCR analysis for Cyp24, RANKL and b-actin. […] Two different primer sets to the human D5 region were used to assess VDR binding. […] Luciferase activity was analysed 24 hours later. […] Data are the average of triplicate determinations, SEM.
Approximately 1000 bp of the human RANKL gene comprising D5 was cloned and inserted into a TK-luciferase expression vector (TK-hRLD5). […] The D5 RL region and an additional region immediately upstream in both the mouse and human genes contain elements that mediate the actions of parathyroid hormone, a variety of prostaglandins, cytokines such as oncostatin M and IL-6, as well as IL-1 and others.

C=C1/C(=C\C=C2/CCC[C@]3(C)[C@@H]([C@H](C)CCCC(C)(C)O)CC[C@@H]23)C[C@@H](O)C[C@@H]1O [1,25(OH)2D3]
stimulation via the D5 fragment in COS7 cells [1]: failed to stimulate | luciferase activity of regions D1 through D4 ([2]; increasing concentrations, no added VDR): failed to show increased activity | response from D2 and D3 ([2]; with exogenous VDR expression vector): modest response | stimulation via the D5 fragment in MC-3T3-E1 (D5 fragment in MC-3T3-E1): failed to stimulate | activity of human D5 region [3]: induces
